From patent publication US20060115502A1, “Cosmetic composition based on cirsimarin” (GATTEFOSSE SAS, priority 2003, published 2006)

Experiments:
A1 receptor = molecular target: T1, A1 receptor (Homo sapiens, UniProt P30542); settings: from literature; cited from earlier work
T1 sequence (P30542 1-326): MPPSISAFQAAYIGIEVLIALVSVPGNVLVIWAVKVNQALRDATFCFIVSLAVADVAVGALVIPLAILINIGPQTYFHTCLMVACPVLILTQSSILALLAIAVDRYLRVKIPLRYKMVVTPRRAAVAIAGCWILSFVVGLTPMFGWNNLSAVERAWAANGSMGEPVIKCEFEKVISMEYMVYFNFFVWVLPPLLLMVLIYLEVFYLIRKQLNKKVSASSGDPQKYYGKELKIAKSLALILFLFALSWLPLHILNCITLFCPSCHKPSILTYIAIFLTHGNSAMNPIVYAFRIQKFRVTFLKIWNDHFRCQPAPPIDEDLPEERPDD

isolated adipocytes = test: Lipolytic activity in vitro on isolated adipocytes (fatty acids released, NEFA C kit); assay type: cell-based, rats; settings: cirsimarin tested at 0.5 mM and 0.1 mM; 1 hour at 37° C.; FIG. 2
Method: a. Positive references and products to be assessed • Noradrenalin (syn. Norepinephrine NE): this molecule, with a molar mass of […], is assessed at the final concentration of 1 μM in a Krebs-Ringer buffer at 4% albumin. • Caffeine: this molecule, with a molar mass of 194.2 g, is assessed at the final concentration of 0.5 mM in a Krebs-Ringer buffer at 4% albumin. • Theophylline: this molecule, with a molar mass of 180.2, is assessed at the final concentration of 0.5 mM in a Krebs-Ringer buffer at 4% albumin. • Cirsimarin: this molecule, with a molar mass of 476.44, is tested at 0.5 mM and 0.1 mM. This molecule is first solubilized in a mixture of solvents: NaOH 0.2 M/DMSO (95/5; v/v). […]
The lipolytic activity is measured by the quantity of fatty acids released; for this, a NEFA C (Non Esterified Fatty Acid/Colorimetric) colorimetric dosage kit sold by Wako® Chemical GmbH is used.
The quantity of fatty acids present in tubes 0 minus that present in tubes 00 corresponds to the basal lipolysis of the adipocytes in the buffer. The quantity of fatty acids present in tubes 0 solvent minus that present in tubes 00 corresponds to the basal lipolysis of the adipocytes in the buffer containing the cirsimarin solution solvent. The quantity of fatty acids released in reaction tubes minus that present in tubes 00 corresponds to the lipolysis induced by the molecules studied.

lipolysis = settings: documents by Nogowski and Jacobson; cited from earlier work

| SMILES | A1 receptor antagonist properties (A1 receptor) | lipolytic activity (quantity of fatty acids released) (isolated adipocytes) | lipolytic activity (lipolysis) |
| --- | --- | --- | --- |
| COc1cc2oc(-c3ccc(O[C@@H]4O[C@H](CO)[C@@H](O)[C@H](O)[C@H]4O)cc3)cc(=O)c2c(O)c1OC [cirsimarin, 5-hydroxy-6,7-dimethoxyflavone 4′-O-glucoside] | A1 receptor antagonist properties | proven in vitro lipolytic activity |  |
| O=c1c(-c2ccc(O)cc2)coc2cc(O)cc(O)c12 [genistein] | identified as an A1 receptor antagonist |  | negligible lipolytic activity |
